{"source": "patent US20260028365A1", "about": "(BIOGEN MA INC., priority 2022, published 2026)", "key": {"[1]": {"target": "JH2 domain of human Tyk2 (Homo sapiens (Human), UniProt P29597)", "sequence (P29597 575-876)": "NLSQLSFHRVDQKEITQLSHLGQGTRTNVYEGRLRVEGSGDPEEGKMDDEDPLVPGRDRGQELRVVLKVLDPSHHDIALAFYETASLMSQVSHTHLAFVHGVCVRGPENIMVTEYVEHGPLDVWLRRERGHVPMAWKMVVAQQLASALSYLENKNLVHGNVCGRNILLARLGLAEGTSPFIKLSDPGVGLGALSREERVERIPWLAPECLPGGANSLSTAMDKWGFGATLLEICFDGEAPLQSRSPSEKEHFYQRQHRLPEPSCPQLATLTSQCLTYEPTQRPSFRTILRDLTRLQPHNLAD", "test": "JH2 Biochemical Assay (TR-FRET probe displacement)", "format": "binding", "details": "TR-FRET probe displacement, JH2 domain of human Tyk2"}, "[2]": {"target": "Tyk2 (Homo sapiens (Human), UniProt P29597)", "sequence (P29597 whole entry)": "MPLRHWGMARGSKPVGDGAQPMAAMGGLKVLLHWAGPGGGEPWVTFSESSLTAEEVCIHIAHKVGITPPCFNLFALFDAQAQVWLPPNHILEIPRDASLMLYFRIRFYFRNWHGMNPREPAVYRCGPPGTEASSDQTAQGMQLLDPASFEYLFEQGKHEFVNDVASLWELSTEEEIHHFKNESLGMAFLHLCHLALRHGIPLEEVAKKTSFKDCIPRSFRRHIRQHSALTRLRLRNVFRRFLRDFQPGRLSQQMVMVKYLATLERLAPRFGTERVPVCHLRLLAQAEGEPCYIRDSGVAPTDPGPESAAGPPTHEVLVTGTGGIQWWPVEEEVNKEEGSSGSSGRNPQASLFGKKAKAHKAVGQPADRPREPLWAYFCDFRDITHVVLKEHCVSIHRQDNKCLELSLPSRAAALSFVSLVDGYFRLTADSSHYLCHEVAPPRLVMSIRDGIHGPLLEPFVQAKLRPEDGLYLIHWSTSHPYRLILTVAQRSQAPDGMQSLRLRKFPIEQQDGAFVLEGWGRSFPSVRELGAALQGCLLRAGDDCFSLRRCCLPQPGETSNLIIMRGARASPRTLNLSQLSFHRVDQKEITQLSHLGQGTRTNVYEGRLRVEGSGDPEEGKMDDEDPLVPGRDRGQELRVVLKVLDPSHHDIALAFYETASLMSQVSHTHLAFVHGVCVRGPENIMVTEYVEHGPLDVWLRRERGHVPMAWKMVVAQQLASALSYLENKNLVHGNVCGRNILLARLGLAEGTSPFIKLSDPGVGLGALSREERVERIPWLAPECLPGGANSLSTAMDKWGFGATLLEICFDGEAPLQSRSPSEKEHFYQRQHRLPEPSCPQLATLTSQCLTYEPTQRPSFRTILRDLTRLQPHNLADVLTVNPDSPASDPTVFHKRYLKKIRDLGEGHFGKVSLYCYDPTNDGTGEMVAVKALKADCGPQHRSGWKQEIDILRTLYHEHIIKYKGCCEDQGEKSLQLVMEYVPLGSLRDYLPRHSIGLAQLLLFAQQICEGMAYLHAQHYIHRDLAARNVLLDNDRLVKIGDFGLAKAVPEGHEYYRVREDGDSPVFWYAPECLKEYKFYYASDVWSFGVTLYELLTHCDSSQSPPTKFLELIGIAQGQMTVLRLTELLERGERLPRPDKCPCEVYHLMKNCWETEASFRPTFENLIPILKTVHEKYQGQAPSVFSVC", "test": "pSTAT4 Cell Assay (MSD, NK92 cells)", "format": "cell-based", "details": "MSD"}}}
{"smiles": "CC(=O)Nc1cc(Nc2cc(C)nc(C(C)(F)F)n2)c(OCc2ncc(C3CC3)o2)cn1", "note": "[Example 342, N-(5-((5-cyclopropyloxazol-2-yl)methoxy)-4-((2-(1,1-difluoroethyl)-6-methylpyrimidin-4-yl)amino)pyridin-2-yl)acetamide]", "values": [{"measurement": "IC50", "setting": "[1]", "value": "≤ 10", "unit": "nM"}, {"measurement": "IC50", "setting": "[2]", "value": "100 to 1000", "unit": "nM"}]}
{"smiles": "CC(=O)Nc1cc(Nc2cc(C)nc(C(C)(F)F)n2)c(OCc2nc(C)ns2)cn1", "note": "[Example 343, N-(4-((2-(1,1-difluoroethyl)-6-methylpyrimidin-4-yl)amino)-5-((3-methyl-1,2,4-thiadiazol-5-yl)methoxy)pyridin-2-yl)acetamide]", "values": [{"measurement": "IC50", "setting": "[1]", "value": "≤ 10", "unit": "nM"}, {"measurement": "IC50", "setting": "[2]", "value": "10 to 100", "unit": "nM"}]}
{"smiles": "CC(=O)Nc1cc(Nc2cc(C)nc(C(C)(F)F)n2)c(OCc2cnc(C3CC3)o2)cn1", "note": "[Example 344, N-(5-((2-cyclopropyloxazol-5-yl)methoxy)-4-((2-(1,1-difluoroethyl)-6-methylpyrimidin-4-yl)amino)pyridin-2-yl)acetamide]", "values": [{"measurement": "IC50", "setting": "[1]", "value": "≤ 10", "unit": "nM"}, {"measurement": "IC50", "setting": "[2]", "value": "10 to 100", "unit": "nM"}]}
{"smiles": "COc1ccnc(COc2cnc(NC(C)=O)cc2Nc2cc(C)nc(C(C)(F)F)n2)n1", "note": "[Example 345, N-(4-((2-(1,1-difluoroethyl)-6-methylpyrimidin-4-yl)amino)-5-((4-methoxypyrimidin-2-yl)methoxy)pyridin-2-yl)acetamide]", "values": [{"measurement": "IC50", "setting": "[1]", "value": "10 to 100", "unit": "nM"}, {"measurement": "IC50", "setting": "[2]", "value": "100 to 1000", "unit": "nM"}]}
{"smiles": "COc1cc(COc2cnc(NC(C)=O)cc2Nc2cc(C)nc(C(C)(F)F)n2)ncn1", "note": "[Example 346, N-(4-((2-(1,1-difluoroethyl)-6-methylpyrimidin-4-yl)amino)-5-((6-methoxypyrimidin-4-yl)methoxy)pyridin-2-yl)acetamide]", "values": [{"measurement": "IC50", "setting": "[1]", "value": "≤ 10", "unit": "nM"}, {"measurement": "IC50", "setting": "[2]", "value": "10 to 100", "unit": "nM"}]}
{"smiles": "CC(=O)Nc1cc(Nc2cc(OC3CC3)nc(C(C)(F)F)n2)c(OCc2ccccn2)cn1", "note": "[Example 348, N-(4-((6-cyclopropoxy-2-(1,1-difluoroethyl)pyrimidin-4-yl)amino)-5-(pyridin-2-ylmethoxy)pyridin-2-yl)acetamide]", "values": [{"measurement": "IC50", "setting": "[1]", "value": "≤ 10", "unit": "nM"}, {"measurement": "IC50", "setting": "[2]", "value": "10 to 100", "unit": "nM"}]}
{"smiles": "CC(=O)Nc1cc(Nc2cc(OC3CC3)nc(C(C)(F)F)n2)c(OCc2ccc(F)c(F)c2)cn1", "note": "[Example 349, N-(4-((6-cyclopropoxy-2-(1,1-difluoroethyl)pyrimidin-4-yl)amino)-5-((3,4-difluorobenzyl)oxy)pyridin-2-yl)acetamide]", "values": [{"measurement": "IC50", "setting": "[1]", "value": "≤ 10", "unit": "nM"}, {"measurement": "IC50", "setting": "[2]", "value": "≤ 10", "unit": "nM"}]}
{"smiles": "CC(=O)Nc1cc(Nc2cc(OC3CC3)nc(C(C)(F)F)n2)c(O[C@H]2C[C@H](F)C2)cn1", "note": "[Example 352, N-(4-((6-cyclopropoxy-2-(1,1-difluoroethyl)pyrimidin-4-yl)amino)-5-((1r,3r)-3-fluorocyclobutoxy)pyridin-2-yl)acetamide]", "values": [{"measurement": "IC50", "setting": "[1]", "value": "≤ 10", "unit": "nM"}, {"measurement": "IC50", "setting": "[2]", "value": "10 to 100", "unit": "nM"}]}
{"smiles": "CC(=O)Nc1cc(Nc2cc(C)nc(C(C)(F)F)n2)c(OCc2cnn(C3CCC3)c2)cn1", "note": "[Example 354, N-(5-((1-cyclobutyl-1H-pyrazol-4-yl)methoxy)-4-((2-(1,1-difluoroethyl)-6-methylpyrimidin-4-yl)amino)pyridin-2-yl)acetamide]", "values": [{"measurement": "IC50", "setting": "[1]", "value": "≤ 10", "unit": "nM"}, {"measurement": "IC50", "setting": "[2]", "value": "100 to 1000", "unit": "nM"}]}
{"smiles": "CC(=O)Nc1cc(Nc2cc(C)nc(C(C)(F)F)n2)c(OCc2cccnc2)cn1", "note": "[Example 355, N-(4-((2-(1,1-difluoroethyl)-6-methylpyrimidin-4-yl)amino)-5-(pyridin-3-ylmethoxy)pyridin-2-yl)acetamide]", "values": [{"measurement": "IC50", "setting": "[1]", "value": "≤ 10", "unit": "nM"}, {"measurement": "IC50", "setting": "[2]", "value": "10 to 100", "unit": "nM"}]}
{"smiles": "COc1cnc(Oc2cnc(NC(C)=O)cc2Nc2cc(C)nc(C(C)(F)F)n2)cn1", "note": "[Example 356, N-(4-((2-(1,1-difluoroethyl)-6-methylpyrimidin-4-yl)amino)-5-((5-methoxypyrazin-2-yl)oxy)pyridin-2-yl)acetamide]", "values": [{"measurement": "IC50", "setting": "[1]", "value": "≥ 1000", "unit": "nM"}, {"measurement": "IC50", "setting": "[2]", "value": "≥ 1000", "unit": "nM"}]}
{"smiles": "COc1cncc(Oc2cnc(NC(C)=O)cc2Nc2cc(C)nc(C(C)(F)F)n2)n1", "note": "[Example 357, N-(4-((2-(1,1-difluoroethyl)-6-methylpyrimidin-4-yl)amino)-5-((6-methoxypyrazin-2-yl)oxy)pyridin-2-yl)acetamide]", "values": [{"measurement": "IC50", "setting": "[1]", "value": "10 to 100", "unit": "nM"}, {"measurement": "IC50", "setting": "[2]", "value": "≥ 1000", "unit": "nM"}]}
